The results in this text go back to US7745619B2, “Vinca derivatives” (priority 2003, dated 2010).

For orientation: GI50 means the concentration that inhibits growth by half. Broadly, the melting point is the temperature of the solid-liquid transition.

Data set [1] has as its system HeLa S-3 cells. In words: HeLa GI50 determination (SRB growth inhibition). It is filed as cell-based, human. Put shortly:
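Cells plated at 2×10^4/well; day-0 plate TCA-fixed, test compounds added at 10-fold dilutions for 2 days. SRB staining, absorbance at 490 nm; GI = 100×(T−T0)/(C−T0), GI50 from growth inhibition vs. concentration plots.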

Data set [2] deals with MCF-7 cells. In words: MCF-7 GI50 determination (crystal violet growth inhibition). The class given is cell-based, human. A digest of the protocol: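 MCF-7 cells seeded at 2×10^4 cells/well, grown 24 h drug-free, then exposed to 10-fold compound dilutions for 4 days. Glutaraldehyde-fixed cells stained with crystal violet, absorbance read at 570 nm; GI=100×(T/T0) against day-0 control OD, GI50 from growth inhibition versus concentration plots.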

Where [3] appears, read: Homo sapiens, HeLa S3, 48 h, read-out: HeLa Cells GI50 (nM).
The mark [4] stands for this setting: Homo sapiens, MCF7, 96 h, read-out: MCF-7 Cells GI50 (nM).
Setting [5] is: Homo sapiens, HeLa S3, 48 h, HeLa S-3 cells, 2 days of treatment, sulforhodamine B, read-out: HeLa Cells GI50.
The mark [6] stands for this setting: Homo sapiens, MCF7, 96 h, MCF-7 cells, 4 days of treatment, crystal violet, read-out: MCF-7 Cells GI50.

Where two headings read alike, the source gives them in different places.

With `CC[C@]1(O)C[C@H]2CN(CCc3c([nH]c4ccc(Nc5ccc(C(F)(F)F)cc5)cc34)[C@@](C(=O)OC)(c3cc4c(cc3OC)N(C)[C@H]3[C@@](O)(C(=O)OC)[C@H](OC(C)=O)[C@]5(CC)C=CCN6CC[C@]43[C@@H]65)C2)C1` [Example 84, 12′-(4-trifluoromethylphenylamino)vinblastine], the concentration for 50% growth inhibition (GI50) in data set [1] (setting [3]) worked out at 30 nM; in data set [2] (setting [4]), 500 nM.
On to `CC[C@]1(O)C[C@H]2CN(CCc3c([nH]c4ccc(S)cc34)[C@@](C(=O)OC)(c3cc4c(cc3OC)N(C)[C@H]3[C@@](O)(C(=O)OC)[C@H](OC(C)=O)[C@]5(CC)C=CCN6CC[C@]43[C@@H]65)C2)C1` [Example 53, 12′-thiovinblastine], for which the GI50 in data set [1] (setting [5]) turned out to be 20 nM; in data set [2] (setting [6]), 30 nM.
Compound `CC[C@]1(O)C[C@H]2CN(CCc3c([nH]c4ccc(SCc5ccccc5Cl)cc34)[C@@](C(=O)OC)(c3cc4c(cc3OC)N(C=O)[C@H]3[C@@](O)(C(=O)OC)[C@H](OC(C)=O)[C@]5(CC)C=CCN6CC[C@]43[C@@H]65)C2)C1` [Example 37, 12′-(2-chlorobenzylsulfanyl)vinblastine] displayed a melting point of 168 to 170 °C. In addition, in data set [1] (setting [3]), the GI50 is 100 nM. Further, in data set [2] (setting [4]), the GI50 was found to be 200 nM.
On to `CC[C@]1(O)C[C@H]2CN(CCc3c([nH]c4ccc(C#N)cc34)[C@@](C(=O)OC)(c3cc4c(cc3OC)N(C)[C@H]3[C@@](O)(C(=O)OC)[C@H](OC(C)=O)[C@]5(CC)C=CCN6CC[C@]43[C@@H]65)C2)C1` [Example 65, 12′-cyanovinblastine], for which the GI50 in data set [1] (setting [5]) and in data set [2] (setting [6]) was 3 nM throughout.
`CC[C@]1(O)C[C@H]2CN(CCc3c([nH]c4ccc(SCCNC(C)=O)cc34)[C@@](C(=O)OC)(c3cc4c(cc3OC)N(C)[C@H]3[C@@](O)(C(=O)OC)[C@H](OC(C)=O)[C@]5(CC)C=CCN6CC[C@]43[C@@H]65)C2)C1` [Example 52, 12′-(2-(acetylamino)ethylsulfanyl) vinblastine]: the figures for the 50% growth inhibitory concentration (GI50) in data set [1] (setting [3]) and in data set [2] (setting [4]) were 200 nM and 300 nM, respectively.
For `CC[C@]1(O)C[C@H]2CN(CCc3c([nH]c4ccc(SCC(=O)NC)cc34)[C@@](C(=O)OC)(c3cc4c(cc3OC)N(C)[C@H]3[C@@](O)(C(=O)OC)[C@H](OC(C)=O)[C@]5(CC)C=CCN6CC[C@]43[C@@H]65)C2)C1` [Example 46, 12′-(methylaminocarbonylmethylsulfanyl)vinblastine], in that order: 200 nM and 500 nM.
Turning to `CCCCCC(=O)c1ccc2[nH]c3c(c2c1)CCN1C[C@H](C[C@@](O)(CC)C1)C[C@]3(C(=O)OC)c1cc2c(cc1OC)N(C=O)[C@H]1[C@@](O)(C(=O)OC)[C@H](OC(C)=O)[C@]3(CC)C=CCN4CC[C@]21[C@@H]43` [Example 72, 12′-hexanoylvincristine], the GI50 came out at 40 nM in data set [1] (setting [3]) and 50 nM in data set [2] (setting [4]).
For `CCOC(=O)/C=C/c1ccc2[nH]c3c(c2c1)CCN1C[C@H](C[C@@](O)(CC)C1)C[C@]3(C(=O)OC)c1cc2c(cc1OC)N(C)[C@H]1[C@@](O)(C(=O)OC)[C@H](OC(C)=O)[C@]3(CC)C=CCN4CC[C@]21[C@@H]43` [Example 26, 12′-(2-ethoxycarbonylvinyl)vinblastine], in that order: 165 nM and 70 nM.
In the same order, the values of `CCc1cc2[nH]c3c(c2cc1CC)CCN1C[C@H](C[C@@](O)(CC)C1)C[C@]3(C(=O)OC)c1cc2c(cc1OC)N(C=O)[C@H]1[C@@](O)(C(=O)OC)[C@H](OC(C)=O)[C@]3(CC)C=CCN4CC[C@]21[C@@H]43` [Example 95, 12′,13′-diethylvincristine] are 20 nM and 30 nM.
For the compound `CC[C@]1(O)C[C@H]2CN(CCc3c([nH]c4ccc(C(=O)NC)cc34)[C@@](C(=O)OC)(c3cc4c(cc3OC)N(C)[C@H]3[C@@](O)(C(=O)OC)[C@H](OC(C)=O)[C@]5(CC)C=CCN6CC[C@]43[C@@H]65)C2)C1` [Example 69, 12′-N-(methylaminocarbonyl)vinblastine], the GI50 in data set [1] (setting [3]) is 600 nM; in data set [2] (setting [4]), over 1000 nM.
On to `CC[C@]1(O)C[C@H]2CN(CCc3c([nH]c4ccc(N(C)C)cc34)[C@@](C(=O)OC)(c3cc4c(cc3OC)N(C)[C@H]3[C@@](O)(C(=O)OC)[C@H](OC(C)=O)[C@]5(CC)C=CCN6CC[C@]43[C@@H]65)C2)C1` [Example 81, 12′-(N,N-dimethylamino)vinblastine], for which the GI50 in data set [1] (setting [5]) turned out to be 30 nM; in data set [2] (setting [6]), 50 nM.
In the case of `CC[C@]1(O)C[C@H]2CN(CCc3c([nH]c4ccc(Sc5ccccc5Cl)cc34)[C@@](C(=O)OC)(c3cc4c(cc3OC)N(C=O)[C@H]3[C@@](O)(C(=O)OC)[C@H](OC(C)=O)[C@]5(CC)C=CCN6CC[C@]43[C@@H]65)C2)C1` [Example 56, 12′-(2-chlorophenylsulfanyl)vincristine], the 50% growth inhibitory concentration (GI50) in data set [1] (setting [3]) and in data set [2] (setting [4]) was 30 nM each time.
In the case of `CC[C@]1(O)C[C@H]2CN(CCc3c([nH]c4ccc(-c5cccc(F)c5)cc34)[C@@](C(=O)OC)(c3cc4c(cc3OC)N(C)[C@H]3[C@@](O)(C(=O)OC)[C@H](OC(C)=O)[C@]5(CC)C=CCN6CC[C@]43[C@@H]65)C2)C1` [Example 11, 12′-(3-fluorophenyl) vinblastine], the GI50 in data set [1] (setting [3]) and in data set [2] (setting [4]) was 300 nM throughout.
For `CC[C@]1(O)C[C@H]2CN(CCc3c([nH]c4ccc(CNC(C)C)cc34)[C@@](C(=O)OC)(c3cc4c(cc3OC)N(C)[C@H]3[C@@](O)(C(=O)OC)[C@H](OC(C)=O)[C@]5(CC)C=CCN6CC[C@]43[C@@H]65)C2)C1` [Example 64, 12′-(N-isopropylaminomethyl)vinblastine], the figures for the GI50 in data set [1] (setting [5]) and in data set [2] (setting [6]) were 900 nM and over 1000 nM, respectively.
As for “di(12′-vinblastine) disulfide [Example 60]”, the GI50 in data set [1] (HeLa S-3 cells, 2 days of treatment, sulforhodamine B, read-out: HeLa Cells GI50) was found to be 10 nM; in data set [2] (MCF-7 cells, 4 days of treatment, crystal violet, read-out: MCF-7 Cells GI50) it was 20 nM.
Take `CC[C@]1(O)C[C@H]2CN(CCc3c([nH]c4ccc(Sc5ccccc5O)cc34)[C@@](C(=O)OC)(c3cc4c(cc3OC)N(C)[C@H]3[C@@](O)(C(=O)OC)[C@H](OC(C)=O)[C@]5(CC)C=CCN6CC[C@]43[C@@H]65)C2)C1` [Example 55, 12′-(2-hydroxyphenylsulfanyl)vinblastine]: the GI50 in data set [1] (setting [3]) is 19 nM; in data set [2] (setting [4]) it was 6 nM.
In the same order, the values of `CC[C@]1(O)C[C@H]2CN(CCc3c([nH]c4ccc(N5CCOCC5)cc34)[C@@](C(=O)OC)(c3cc4c(cc3OC)N(C)[C@H]3[C@@](O)(C(=O)OC)[C@H](OC(C)=O)[C@]5(CC)C=CCN6CC[C@]43[C@@H]65)C2)C1` [Example 86, 12′-(4-morpholino) vinblastine] are 30 nM and 50 nM.
`CC[C@]1(O)C[C@H]2CN(CCc3c([nH]c4ccc(SCC(=O)O)cc34)[C@@](C(=O)OC)(c3cc4c(cc3OC)N(C)[C@H]3[C@@](O)(C(=O)OC)[C@H](OC(C)=O)[C@]5(CC)C=CCN6CC[C@]43[C@@H]65)C2)C1` [Example 45, 12′-(carboxymethylsulfanyl)vinblastine]: the GI50 in data set [1] (setting [3]) was 50 nM; in data set [2] (setting [4]), 200 nM.
In the case of `CC[C@]1(O)C[C@H]2CN(CCc3c([nH]c4ccc(C(=O)CC(C)C)cc34)[C@@](C(=O)OC)(c3cc4c(cc3OC)N(C=O)[C@H]3[C@@](O)(C(=O)OC)[C@H](OC(C)=O)[C@]5(CC)C=CCN6CC[C@]43[C@@H]65)C2)C1` [Example 71, 12′-(3-methylbutanoyl) vincristine], the 50% growth inhibitory concentration (GI50) in data set [1] (setting [3]) was 200 nM; in data set [2] (setting [4]) it was 100 nM.
Consider `CC[C@]1(O)C[C@H]2CN(CCc3c([nH]c4ccc(-c5ccsc5)cc34)[C@@](C(=O)OC)(c3cc4c(cc3OC)N(C)[C@H]3[C@@](O)(C(=O)OC)[C@H](OC(C)=O)[C@]5(CC)C=CCN6CC[C@]43[C@@H]65)C2)C1` [Example 14, 12′-(3-thienyl) vinblastine], for which the GI50 in data set [1] (setting [3]) and in data set [2] (setting [4]) was 300 nM each time.
Take `CCCSc1ccc2[nH]c3c(c2c1)CCN1C[C@H](C[C@@](O)(CC)C1)C[C@]3(C(=O)OC)c1cc2c(cc1OC)N(C)[C@H]1[C@@](O)(C(=O)OC)[C@H](OC(C)=O)[C@]3(CC)C=CCN4CC[C@]21[C@@H]43` [Example 39, 12′-(propylsulfanyl) vinblastine]: the GI50 in data set [1] (setting [5]) and in data set [2] (setting [6]) was 25 nM throughout.
For `CCSc1ccc2[nH]c3c(c2c1)CCN1C[C@H](C[C@@](O)(CC)C1)C[C@]3(C(=O)OC)c1cc2c(cc1OC)N(C)[C@H]1[C@@](O)(C(=O)OC)[C@H](OC(C)=O)[C@]3(CC)C=CCN4CC[C@]21[C@@H]43` [Example 41, 12′-(ethylsulfanyl) vinblastine], the figures for the GI50 in data set [1] (setting [5]) and in data set [2] (setting [6]) were 2 nM and 3 nM, respectively.
